For test [1], the system named is DKO mice (Pten−/−;Sav1−/−). As to the kind of experiment: MK-2206 treatment of 3-week-old DKO mice for 2 weeks (fatty liver). As to conditions: 66 mg/kg i.p. every other day for 2 weeks, vs vehicle. In kind it is in vivo, mouse. The protocol: (§1) Adenovirus for overexpression of CRE, YAP5SA, TAZ4SA, or GFP (control) and AAV-saCas9-sgIrs2 or sgCtl in the mouse liver were injected into the tail vain of […], respectively. The mice were deprived of food for 16 hours at day 4 (YAP5SA, TAZ4SA, and GFP) or week 4 (CRE and GFP) after adenovirus injection. MK-2206 (Selleckchem; S1078) was prepared in 30% Captisol (CyDex Pharmaceuticals; RC-0C7) and administered to DKO mice by intraperitoneal injection at a dose of 66 mg/kg every other day for 2 weeks, beginning at 3 or 12 weeks of age.
Given the lack of treatments for NASH, the present inventors next asked whether pharmacological inhibition of AKT could ameliorate fatty liver and slow cancer progression in DKO mice. To this end, the present inventors administered the pan-AKT inhibitor MK-2206 (phase II clinical trials) intraperitoneally to 3-week-old DKO mice.
FIGS. 8b to 8d are graphs of the result of liver-to-body weight ratio percentage, the analysis of liver enzymes in the serum, the qPCR analysis of lipogenesis-related gene expression in the liver of control (white bars) and MK-2206 (red bars), respectively.

For test [2], the system named is DKO mice (Pten−/−;Sav1−/−). As to the kind of experiment: MK-2206 treatment of 12-week-old DKO mice for 2 weeks (liver cancer). In kind it is in vivo, mouse. The protocol: as §1
Further, to investigate the suppression of liver cancer, MK-2206 was injected to 12-week-old DKO mice that 80% of them had liver tumor (FIG. 1b). The graphs of FIG. 8f are the result of the result of liver-to-body weight ratio (F), liver tumor number and size (G), serum analysis (H) of the experiment shown in FIG. 8f. The graph representing the quantification analysis of Ki-67^+ hepatocytes of specimen is shown in FIG. 8h, and a graph representing the qPCR analysis of the expression of genes related to fibrosis (Acta2, desmin, and Tgfb), cell death or injury (Hmox1 and Gadd153), or inflammation (Tnfa) is shown in FIG. 8i.

Setting [3] is: 12-week-old DKO mice, 2 weeks treatment, vs vehicle.

`NC1(c2ccc(-c3nc4ccn5c(=O)[nH]nc5c4cc3-c3ccccc3)cc2)CCC1` [MK-2206]: in test [1], the “expression of lipogenesis-related genes (Fasn, Acc1, Srebp1c), qPCR in liver” value is given as “lower expression of lipogenesis-related genes”; the “fatty liver (macroscopic, H&E, Oil red O)” value is “less fatty liver”; the “liver fibrosis (Sirius red)” value is “reduced liver fibrosis”; the “liver function (liver enzymes in serum)” value is listed as “improved liver function”. Further, the “liver weight (liver-to-body weight ratio)” value in test [1] is given as “decreased liver weight”. In addition, the “fatty liver and tumorigenesis” value in test [2] (12-week-old DKO mice, 66 mg/kg i.p. every other day for 2 weeks, vs vehicle) was “reduced fatty liver and tumorigenesis”. Further, in test [2] (setting [3]), the Ki-67-positive cells result is “fewer Ki-67-positive cells”; the “YAP expression (IHC)” value is “without a corresponding change in YAP expression”; the “expression of genes related to fibrosis (Acta2, desmin, Tgfb), cell death or injury (Hmox1, Gadd153) and inflammation (Tnfa), qPCR” value is “reduced expression of genes related to fibrosis”; the “fibrosis (Picrosirius red)” value is recorded as “reduced fibrosis”. Also, in test [2] (setting [3]), the “hepatocyte TAZ expression (IHC)” value is given as “lower levels of hepatocyte TAZ expression”, the “hepatocytes with excessive lipid droplets (H&E)” value is reported as “fewer hepatocytes with excessive lipid droplets”, the liver color entry was “normalized liver color” and the “liver size (liver-to-body weight ratio)” value is given as “reduced liver size”. In test [2] (setting [3]), the tumor nodule size result was “reduction in tumor nodule size”. The “development of NAFLD and liver cancer in DKO mice” value in test [2] (overall conclusion, DKO mice treated from 3 or 12 weeks of age) is “markedly attenuates the development of NAFLD and liver cancer”.

The values are drawn from patent publication US11692222B2, “Animal model of non-alcoholic liver disease and composition of diagnosis, prevention or treatment for non-alcoholic liver disease” (KOREA ADVANCED INSTITUTE OF SCIENCE AND TECHNOLOGY, priority 2018, dated 2023).
